A value given as a limit tells only on which side of the number the result lay.

Sequence of recombinant human α5β1 (P08648 42-1049): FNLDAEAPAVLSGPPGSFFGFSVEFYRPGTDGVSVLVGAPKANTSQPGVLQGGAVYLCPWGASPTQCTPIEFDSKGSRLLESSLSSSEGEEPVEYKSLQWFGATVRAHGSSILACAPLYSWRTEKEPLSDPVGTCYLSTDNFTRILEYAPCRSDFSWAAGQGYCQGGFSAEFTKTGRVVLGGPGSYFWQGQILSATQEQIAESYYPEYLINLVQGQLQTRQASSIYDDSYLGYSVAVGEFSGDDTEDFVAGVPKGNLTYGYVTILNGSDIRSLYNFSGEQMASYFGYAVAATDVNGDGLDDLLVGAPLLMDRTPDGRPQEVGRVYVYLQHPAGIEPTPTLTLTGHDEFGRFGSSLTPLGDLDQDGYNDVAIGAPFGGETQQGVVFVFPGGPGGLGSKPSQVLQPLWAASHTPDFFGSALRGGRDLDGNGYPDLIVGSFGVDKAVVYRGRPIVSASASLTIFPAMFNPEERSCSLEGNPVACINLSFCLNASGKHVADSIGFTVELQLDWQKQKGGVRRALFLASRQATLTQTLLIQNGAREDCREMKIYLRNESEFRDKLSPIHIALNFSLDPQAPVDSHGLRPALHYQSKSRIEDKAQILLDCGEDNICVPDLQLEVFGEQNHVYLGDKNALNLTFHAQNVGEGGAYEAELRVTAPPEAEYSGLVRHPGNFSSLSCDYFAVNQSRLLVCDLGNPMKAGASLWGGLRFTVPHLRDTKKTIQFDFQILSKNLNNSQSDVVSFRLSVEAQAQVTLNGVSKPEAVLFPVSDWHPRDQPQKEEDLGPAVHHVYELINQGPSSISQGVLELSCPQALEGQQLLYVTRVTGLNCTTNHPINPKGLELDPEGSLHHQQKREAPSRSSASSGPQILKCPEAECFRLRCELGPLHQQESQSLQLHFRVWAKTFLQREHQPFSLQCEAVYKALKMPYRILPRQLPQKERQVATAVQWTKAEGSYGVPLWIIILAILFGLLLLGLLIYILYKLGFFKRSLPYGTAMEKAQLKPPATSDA
Sequence of recombinant human α5β1 (P05556 21-798): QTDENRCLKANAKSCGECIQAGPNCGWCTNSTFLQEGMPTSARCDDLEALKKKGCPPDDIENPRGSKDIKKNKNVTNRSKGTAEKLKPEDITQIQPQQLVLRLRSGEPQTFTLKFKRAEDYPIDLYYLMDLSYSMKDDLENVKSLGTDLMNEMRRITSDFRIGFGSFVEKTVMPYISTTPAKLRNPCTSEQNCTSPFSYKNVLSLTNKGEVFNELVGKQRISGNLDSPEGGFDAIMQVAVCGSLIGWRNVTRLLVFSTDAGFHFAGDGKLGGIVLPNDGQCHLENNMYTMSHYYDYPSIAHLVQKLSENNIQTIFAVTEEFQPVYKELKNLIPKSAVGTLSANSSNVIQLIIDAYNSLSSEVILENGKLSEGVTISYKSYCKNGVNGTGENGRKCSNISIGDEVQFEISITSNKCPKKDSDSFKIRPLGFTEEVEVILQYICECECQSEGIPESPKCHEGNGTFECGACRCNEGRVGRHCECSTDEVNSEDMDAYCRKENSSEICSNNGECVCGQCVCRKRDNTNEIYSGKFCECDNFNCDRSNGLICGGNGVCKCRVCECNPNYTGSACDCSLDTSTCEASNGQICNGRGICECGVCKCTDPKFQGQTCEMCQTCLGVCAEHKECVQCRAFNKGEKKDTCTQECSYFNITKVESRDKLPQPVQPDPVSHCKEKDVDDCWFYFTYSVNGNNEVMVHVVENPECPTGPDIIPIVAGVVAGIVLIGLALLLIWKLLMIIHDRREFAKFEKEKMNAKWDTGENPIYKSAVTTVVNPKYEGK

The target in the test is recombinant human α5β1 (Homo sapiens, UniProt P05556+P08648). In words: In Vitro Binding Assay (a): inhibition of binding of α5β1 integrin to a fragment of human fibronectin (Fn9-10), Origen electrochemiluminescence. The settings on record: geometric mean where tested more than once. The text has this:
The assay determined the ability of compounds to inhibit binding of α5β1 integrin to a cognate ligand, a fragment of human fibronectin. The assay used Origen technology (IGEN International) to measure the compound activity. Briefly, α5β1 integrin was coated onto epoxy-paramagnetic beads (Dynal Biotech UK, Bromborough, Wirral, CH62 3QL, UK, Catalogue No 140.11) and biotinylated-fibronectin ligand was coupled to strepatividin labeled Tag-NHS-Ester (BioVeris Corporation, Witney, Oxfordshire, OX28 4GE, UK, Catalogue No 110034). The ruthenium-labeled tag emits an electrochemiluminescence signal upon stimulation which is detected by the Origen reader. Thus, interaction of integrin and ligand causes association of bead and tag, and the resulting electrochemiluminescence signal reflects the level of integrin interaction with fibronectin.
20 μg of recombinant human α5β1 was coated onto 4×10(7) epoxy-paramagnetic beads according to manufacturers instructions at 4° C. for 24 hours. Integrin coating and corresponding activity was subsequently measured for each batch but typically, 25 ng of coated protein was used per assay well.
A DNA fragment encoding the domains 9-10 (amino-acids 1325-1509) of human fibronectin (Swiss-Prot Accession No. P02751) was isolated from cDNA libraries using standard molecular biology and PCR cloning techniques. The cDNA fragment was sub-cloned into a pT73.3 expression vector containing a GST-epitope tag (developed at AstraZeneca; Bagnall et al., Protein Expression and Purification, 2003, 27: 1-11). Following expression in E. coli, the expressed protein, termed Fn9-10, was purified using the GST-tag using standard purification techniques. The recombinant Fn9-10 was subsequently biotinylated using a EZ-link Sulfo-NHS-LC-Biotinylation kit (Perbio Science UK Ltd., Cramlington, Northumberland, NE23 1WA, UK, Catalogue No. 21335) and made to give a final concentration of approximately 1 mg/ml. Tag-NHS-Ester was labeled with streptavidin by incubation at room temperature following manufacturers instructions and buffer-exchanged into PBS to give a concentration of 0.5 mg/ml. Immediately prior to the assay, biotinylated-Fn9-10 and Streptavidin-labeled Tag were diluted in Assay Buffer to give a final concentrations of 0.6 ug/ml and 1.5 ug/ml respectively. The Fn9-10 and Tag solutions were then mixed together in equal volumes and incubated on ice for at least 30 minutes prior to the assay.
Aliquots (20 μl) of each compound dilution were placed into each well of a 384-well round bottomed polypropylene plate (Matrix Technologies, Wilmslow, Cheshire, SK9 3LP, Catalogue No. 4340 384).
For the assay, 25 ng (20 ul) of a5b1-bead suspension and 40 μl of the Fn9-10/Tag pre-incubated solution were added to each well containing 20 μl of compound or control solution. Assay plates were then incubated at room temperature for a minimum of 6 hours before being analysed on an Origen plate reader. The minimum value was subtracted from all values, and the signal was plotted against compound concentration to generate IC50 data.
The data in the above table was generated in an assay substantially as described above in relation to Binding Assay (a). Some of the compounds shown in the table were tested more than once in the assay. For those compounds the IC50 value shown is the geometric mean of the measured IC50 values.
In general, IC50 refers to the concentration that inhibits the measured activity by half. `CNc1cccc(CCOc2ccc(C[C@H](NC(=O)c3ccncc3Cl)C(=O)O)cc2)n1` [Example 2.1, N-(3-chloroisonicotinoyl)-O-{2-[6-(methylamino)pyridin-2-yl]ethyl}-L-tyrosine]: the IC50 was 7 nM.

Regarding `CNc1cccc(CCOc2ccc(C[C@H](NC(=O)c3conc3C)C(=O)O)cc2)n1` [Example 2.2, O-{2-[6-(methylamino)pyridin-2-yl]ethyl}-N-[(3-methylisoxazol-4-yl)carbonyl]-L-tyrosine], the concentration for half-maximal inhibition (IC50) came out at 23 nM.

Regarding `CCSc1ncccc1C(=O)N[C@@H](Cc1ccc(OCCc2cccc(NC)n2)cc1)C(=O)O` [Example 2.3, N-{[2-(ethylthio)pyridin-3-yl]carbonyl}-O-{2-[6-(methylamino)pyridin-2-yl]ethyl}-L-tyrosine], the 50% inhibitory concentration (IC50) was 31 nM.

`CNc1cccc(CCOc2ccc(C[C@H](NC(=O)c3ccc(Cl)nc3Cl)C(=O)O)cc2)n1` [Example 2.4, N-[(2,6-dichloropyridin-3-yl)carbonyl]-O-{2-[6-(methylamino)pyridin-2-yl]ethyl}-L-tyrosine]: the IC50 came out at 39 nM.

`CNc1cccc(CCOc2ccc(C[C@H](NC(=O)c3oc4ccccc4c3C)C(=O)O)cc2)n1` [Example 2.5, O-{2-[6-(methylamino)pyridin-2-yl]ethyl}-N-[(3-methyl-1-benzofuran-2-yl)carbonyl]-L-tyrosine]: the 50% inhibitory concentration (IC50) is 80 nM.

For `CNc1cccc(CCOc2ccc(C[C@H](NC(=O)c3cccnc3C)C(=O)O)cc2)n1` [Example 2.6, O-{2-[6-(methylamino)pyridin-2-yl]ethyl}-N-[(2-methylpyridin-3-yl)carbonyl]-L-tyrosine], the half-inhibitory concentration (IC50) came out at 34 nM.

Regarding `CNc1cccc(CCOc2ccc(C[C@H](NC(=O)c3ncccc3C)C(=O)O)cc2)n1` [Example 2.7, O-{2-[6-(methylamino)pyridin-2-yl]ethyl}-N-[(3-methylpyridin-2-yl)carbonyl]-L-tyrosine], the IC50 came out at 131 nM.

For the molecule `CNc1cccc(CCOc2ccc(C[C@H](NC(=O)c3cnccc3Cl)C(=O)O)cc2)n1` [Example 2.8, N-[(4-chloropyridin-3-yl)carbonyl]-O-{2-[6-(methylamino)pyridin-2-yl]ethyl}-L-tyrosine], the IC50 was 8 nM.

As to `CNc1cccc(CCOc2ccc(C[C@H](NC(=O)c3cccnc3Cl)C(=O)O)cc2)n1` [Example 3.1, N-[(2-chloropyridin-3-yl)carbonyl]-O-{2-[6-(methylamino)pyridin-2-yl]ethyl}-L-tyrosine], the half-inhibitory concentration (IC50) stood at 20 nM.

Turning to `CNc1cccc(CCOc2ccc(C[C@H](NC(=O)c3ccc(OC)nc3OC)C(=O)O)cc2)n1` [Example 3.2, N-[(2,6-dimethoxypyridin-3-yl)carbonyl]-O-{2-[6-(methylamino)pyridin-2-yl]ethyl}-L-tyrosine], the IC50 came to 352 nM.

In the case of `O=C(N[C@@H](Cc1ccc(OCCc2ccc3c(n2)NCCO3)cc1)C(=O)O)c1c(Cl)cncc1Cl` [Example 4.1, N-[(3,5-dichloropyridin-4-yl)carbonyl]-O-[2-(3,4-dihydro-2H-pyrido[3,2-b][1,4]oxazin-6-yl)ethyl]-L-tyrosine], the IC50 was less than 1 nM.

`O=C(N[C@@H](Cc1ccc(OCCc2ccc3c(n2)NCCO3)cc1)C(=O)O)c1sccc1Cl` [Example 4.2, N-[(3-chlorothiophen-2-yl)carbonyl]-O-[2-(3,4-dihydro-2H-pyrido[3,2-b][1,4]oxazin-6-yl)ethyl]-L-tyrosine]: the IC50 worked out at 51 nM.

For `Cc1noc(C)c1C(=O)N[C@@H](Cc1ccc(OCCc2ccc3c(n2)NCCO3)cc1)C(=O)O` [Example 4.3, O-[2-(3,4-dihydro-2H-pyrido[3,2-b][1,4]oxazin-6-yl)ethyl]-N-[(3,5-dimethylisoxazol-4-yl)carbonyl]-L-tyrosine], the IC50 worked out at 1 nM.

Consider `O=C(N[C@@H](Cc1ccc(OCCc2ccc3c(n2)NCCO3)cc1)C(=O)O)c1ccncc1Cl` [Example 4.4, N-[(3-chloropyridin-4-yl)carbonyl]-O-[2-(3,4-dihydro-2H-pyrido[3,2-b][1,4]oxazin-6-yl)ethyl]-L-tyrosine], for which the IC50 is 5 nM.

For the molecule `Cc1cnccc1C(=O)N[C@@H](Cc1ccc(OCCc2ccc3c(n2)NCCO3)cc1)C(=O)O` [Example 4.5, O-[2-(3,4-dihydro-2H-pyrido[3,2-b][1,4]oxazin-6-yl)ethyl]-N-[(3-methylpyridin-4-yl)carbonyl]-L-tyrosine], the IC50 was found to be 4 nM.

Turning to `COc1cscc1C(=O)N[C@@H](Cc1ccc(OCCc2ccc3c(n2)NCCC3)cc1)C(=O)O` [Example 5.1, N-[(4-methoxythiophen-3-yl)carbonyl]-O-[2-(5,6,7,8-tetrahydro-1,8-naphthyridin-2-yl)ethyl]-L-tyrosine], the IC50 came out at 42 nM.

Regarding `O=C(N[C@@H](Cc1ccc(OCCc2ccc3c(n2)NCCC3)cc1)C(=O)O)c1sccc1Cl` [Example 5.2, N-[(3-chlorothiophen-2-yl)carbonyl]-O-[2-(5,6,7,8-tetrahydro-1,8-naphthyridin-2-yl)ethyl]-L-tyrosine], the IC50 was found to be 1 nM.

With `Cn1c(C(=O)N[C@@H](Cc2ccc(OCCc3ccc4c(n3)NCCC4)cc2)C(=O)O)c(Cl)c2ccccc21` [Example 5.3, N-[(3-chloro-1-methyl-1H-indol-2-yl)carbonyl]-O-[2-(5,6,7,8-tetrahydro-1,8-naphthyridin-2-yl)ethyl]-L-tyrosine], the 50% inhibitory concentration (IC50) is 94 nM.

With `Cc1noc(C)c1C(=O)N[C@@H](Cc1ccc(CCCc2ccc3c(n2)NCCC3)cc1)C(=O)O` [Example 5.4, N-[(3,5-dimethylisoxazol-4-yl)carbonyl]-4-[3-(5,6,7,8-tetrahydro-1,8-naphthyridin-2-yl)propyl]-L-phenylalanine], the half-maximal inhibitory concentration (IC50) amounted to 2.2 nM.

As to `O=C(N[C@@H](Cc1ccc(OCCc2ccc3c(n2)NCCC3)cc1)C(=O)O)c1c(Cl)cncc1Cl` [Example 5.5, N-[(3,5-dichloropyridin-4-yl)carbonyl]-O-[2-(5,6,7,8-tetrahydro-1,8-naphthyridin-2-yl)ethyl]-L-tyrosine], the 50% inhibitory concentration (IC50) was less than 1 nM.

In the case of `CCc1sccc1C(=O)N[C@@H](Cc1ccc(OCCc2ccc3c(n2)NCCC3)cc1)C(=O)O` [Example 5.6, N-[(2-ethylthiophen-3-yl)carbonyl]-O-[2-(5,6,7,8-tetrahydro-1,8-naphthyridin-2-yl)ethyl]-L-tyrosine], the IC50 worked out at 1 nM.

Regarding `O=C(N[C@@H](Cc1ccc(OCCc2ccc3c(n2)NCCC3)cn1)C(=O)O)c1sccc1Cl` [Example 6, N-[(3-chlorothiophen-2-yl)carbonyl]-3-{5-[2-(5,6,7,8-tetrahydro-1,8-naphthyridin-2-yl)ethoxy]pyridin-2-yl}-L-alanine], the 50% inhibitory concentration (IC50) was less than 1 nM.

On to `CNc1cccc(CCOc2ccc(C[C@H](NC(=O)c3sccc3Cl)C(=O)O)nc2)n1` [Example 7, N-[(3-chlorothiophen-2-yl)carbonyl]-3-(5-{2-[6-(methylamino)pyridin-2-yl]ethoxy}pyridin-2-yl)-L-alanine], for which the IC50 is 21 nM.

For the molecule `O=C(N[C@@H](Cc1ccc(CCCc2ccc3c(n2)NCCC3)cn1)C(=O)O)c1sccc1Cl` [Example 8, N-[(3-chlorothiophen-2-yl)carbonyl]-3-{5-[3-(5,6,7,8-tetrahydro-1,8-naphthyridin-2-yl)propyl]pyridin-2-yl}-L-alanine], the IC50 came out at 4 nM.

Regarding `O=C(N[C@@H](Cc1ccc(OCCc2ccc3c(n2)NCCC3)nc1)C(=O)O)c1sccc1Cl` [Example 9, N-[(3-chlorothiophen-2-yl)carbonyl]-3-{6-[2-(5,6,7,8-tetrahydro-1,8-naphthyridin-2-yl)ethoxy]pyridin-3-yl}-L-alanine], the IC50 came out at 7 nM.

For the molecule `O=C(N[C@@H](Cc1ccc(CCCc2ccc3c(n2)NCCC3)nc1)C(=O)O)c1sccc1Cl` [Example 10, N-[(3-chloro-2-thienyl)carbonyl]-3-{6-[3-(5,6,7,8-tetrahydro-1,8-naphthyridin-2-yl)propyl]pyridin-3-yl}-L-alanine], the IC50 was found to be 2.5 nM.

For the origin of these results see patent publication US20090062267A1, “L-ALANINE DERIVATIVES AS a5beta1 ANTAGONISTS” (ASTRAZENECA AB, priority 2007, published 2009).
